Measured values published in ChEMBL document CHEMBL1148212, “New sphingosines from a gorgonian, Pseudopterogorgia australiensis Ridley, of the Indian Ocean” (J Nat Prod, 2004).
Activity calls are given as the source filed them. No cut-off for these calls is given here.

Columns and labels:
Type in all cases: functional, organism-based
Bacillus pumilus = experiment: Antimicrobial activity against Bacillus pumilus at 1 mg/mL by cup diffusion method
Proteus vulgaris = experiment: Antimicrobial activity against Proteus vulgaris at 1 mg/mL by cup diffusion method
Candida albicans = experiment: Antimicrobial activity against Candida albicans
Escherichia coli = experiment: Antimicrobial activity against Escherichia coli at 1 mg/mL by cup diffusion method
Pseudomonas aeruginosa = experiment: Antimicrobial activity against Pseudomonas aeruginosa at 1 mg/mL by cup diffusion method
Staphylococcus aureus = experiment: Antimicrobial activity against Staphylococcus aureus at 1 mg/mL by cup diffusion method
Bacillus subtilis = experiment: Antimicrobial activity against Bacillus subtilis at 1 mg/mL by cup diffusion method
Aspergillus niger = experiment: Antimicrobial activity against Aspergillus niger

Structure (SMILES)	Activity (Bacillus pumilus)	Activity (Proteus vulgaris)	Activity (Candida albicans)	Activity (Escherichia coli)	Activity (Pseudomonas aeruginosa)	Activity (Staphylococcus aureus)	Activity (Bacillus subtilis)	Activity (Aspergillus niger)
CCCCCCCCCCCCCCCCC[C@@H](O)C(=O)N[C@@H](CO)[C@H](O)[C@H](O)CCCCCCCCCCCCCCC	Active	Active	inactive	Active	Active	Active	Active	inactive
CCCCCCCCCCCCC/C=C/[C@@H](O)[C@H](CO)NC(=O)CCCCCCCCCCCCCCCC	Active	Active	inactive	Active	Active	Active	Active	inactive
CCCCCCCCCCCCCCCCCCCCCC(=O)N[C@@H](CO)[C@H](O)CCCCCCCCCCCCCCCC	Active	Active	inactive	Active	Active	Active	Active	inactive
